Results taken from publication PMC6107497.

Test: Pd(II)-catalysed intramolecular ortho C(sp2)-H olefination (oxidative Heck-type aryl-alkenyl C-C bond) of peptide aryl/benzyl/thienyl sulfonamides with pendant acrylate or unactivated terminal alkene; Pd(OAc)2 10 mol%, AgOAc 2.0 equiv
Settings: 1,2-dichloroethane (DCE), 50.0 mM, 80.0 °C, 24.0 h

With `COC(=O)[C@@H]1COC(=O)C=Cc2ccsc2S(=O)(=O)N[C@@H](COC(C)(C)C)C(=O)NCC(=O)N2CCC[C@H]2C(=O)N1` [(thiophene-2-SO2)-Ser(tBu)-Gly-Pro-Ser(O-acryloyl)-OMe] the ring closure, isolated yield (from C=CC(=O)OC[C@H](NC(=O)[C@@H]1CCCN1C(=O)CNC(=O)[C@H](COC(C)(C)C)NS(=O)(=O)c1cccs1)C(=O)OC, 19-membered ring) was 53%.

With `COC(=O)[C@@H]1COC(=O)C=Cc2ccsc2S(=O)(=O)N[C@@H](C(C)(C)C)C(=O)NCC(=O)N2CCC[C@H]2C(=O)N1` [(thiophene-2-SO2)-tLeu-Gly-Pro-Ser(O-acryloyl)-OMe] the ring closure, isolated yield (from C=CC(=O)OC[C@H](NC(=O)[C@@H]1CCCN1C(=O)CNC(=O)[C@@H](NS(=O)(=O)c1cccs1)C(C)(C)C)C(=O)OC, 19-membered ring) was 59%.

With `COC(=O)[C@@H]1COC(=O)C=Cc2ccccc2CS(=O)(=O)N[C@@H](C(C)(C)C)C(=O)NCC(=O)NCC(=O)NCC(=O)N1` [PhCH2SO2-tLeu-Gly-Gly-Gly-Ser(O-acryloyl)-OMe] the ring closure, isolated yield (from C=CC(=O)OC[C@H](NC(=O)CNC(=O)CNC(=O)CNC(=O)[C@@H](NS(=O)(=O)Cc1ccccc1)C(C)(C)C)C(=O)OC, 23-membered ring) was 34%.

With `COC(=O)[C@@H]1COC(=O)C=Cc2ccccc2CS(=O)(=O)N[C@@H](C(C)(C)C)C(=O)NCC(=O)NCC(=O)N1` [PhCH2SO2-tLeu-Gly-Gly-Ser(O-acryloyl)-OMe] the ring closure, isolated yield (from C=CC(=O)OC[C@H](NC(=O)CNC(=O)CNC(=O)[C@@H](NS(=O)(=O)Cc1ccccc1)C(C)(C)C)C(=O)OC, 20-membered ring) was 45%.

`COC(=O)[C@@H]1Cc2ccc(cc2)OC(=O)C=Cc2ccccc2CS(=O)(=O)N[C@@H](C(C)(C)C)C(=O)NCC(=O)N2CCC[C@H]2C(=O)N1` [PhCH2SO2-tLeu-Gly-Pro-Tyr(O-acryloyl)-OMe] gave a ring closure, isolated yield (from C=CC(=O)Oc1ccc(C[C@H](NC(=O)[C@@H]2CCCN2C(=O)CNC(=O)[C@@H](NS(=O)(=O)Cc2ccccc2)C(C)(C)C)C(=O)OC)cc1, 24-membered ring) of 72%.

`COC(=O)[C@@H]1COC(=O)C=Cc2ccccc2CS(=O)(=O)N[C@@H](C(C)(C)C)C(=O)NCC(=O)N1` [PhCH2SO2-tLeu-Gly-Ser(O-acryloyl)-OMe] gave a ring closure, isolated yield (from C=CC(=O)OC[C@H](NC(=O)CNC(=O)[C@@H](NS(=O)(=O)Cc1ccccc1)C(C)(C)C)C(=O)OC, 17-membered ring) of 58%.

With `COC(=O)[C@@H]1COC(=O)CCC=Cc2ccccc2CS(=O)(=O)N[C@@H](C(C)(C)C)C(=O)NCC(=O)N1` [PhCH2SO2-tLeu-Gly-Ser(O-pent-4-enoyl)-OMe] the ring closure, isolated yield (from C=CCCC(=O)OC[C@H](NC(=O)CNC(=O)[C@@H](NS(=O)(=O)Cc1ccccc1)C(C)(C)C)C(=O)OC, 19-membered ring) was 53%.

Compound `COC(=O)[C@@H]1COC(=O)C=Cc2ccccc2CS(=O)(=O)N[C@@H](C(C)(C)C)C(=O)N1` [PhCH2SO2-tLeu-Ser(O-acryloyl)-OMe] has a ring closure, isolated yield (from C=CC(=O)OC[C@H](NC(=O)[C@@H](NS(=O)(=O)Cc1ccccc1)C(C)(C)C)C(=O)OC, 14-membered ring) of 52%.

`COC(=O)[C@@H]1COC(=O)C=Cc2ccccc2S(=O)(=O)N[C@@H](C(C)(C)C)C(=O)NCC(=O)N2CCC[C@H]2C(=O)N1` [PhSO2-tLeu-Gly-Pro-Ser(O-acryloyl)-OMe] gave a ring closure, isolated yield (from C=CC(=O)OC[C@H](NC(=O)[C@@H]1CCCN1C(=O)CNC(=O)[C@@H](NS(=O)(=O)c1ccccc1)C(C)(C)C)C(=O)OC, 19-membered ring) of 67%.

Work on `COC(=O)[C@@H]1Cc2ccc(cc2)OCC=Cc2ccccc2S(=O)(=O)N[C@@H](C(C)(C)C)C(=O)NCC(=O)N2CCC[C@H]2C(=O)N1` [PhSO2-tLeu-Gly-Pro-Tyr(O-allyl)-OMe] yielded a ring closure, isolated yield (from C=CCOc1ccc(C[C@H](NC(=O)[C@@H]2CCCN2C(=O)CNC(=O)[C@@H](NS(=O)(=O)c2ccccc2)C(C)(C)C)C(=O)OC)cc1, 23-membered ring) of 61%.
